How the values were obtained:
Type in all cases: in vivo
[1] = tested on: barnyardgrass (Echinochloa crus-galli); assay: Test B flooded paddy test; conditions: Flood, 250 g ai/ha; 0 to 100 scale where 0 is no effect and 100 is complete control; 13 to 15 d
How it was run: (§1)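 Rating scale 0–100 (visual, vs untreated controls) after a 13–15 d greenhouse period; application to the flood layer, 3 cm above soil and maintained; plants at 2-leaf stage when treated.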

[2] = tested on: ducksalad (Heteranthera limosa); assay: Test B flooded paddy test; conditions: Flood, 250 g ai/ha; 0 to 100 scale where 0 is no effect and 100 is complete control; 13 to 15 d
How it was run: as §1

[3] = tested on: rice (Oryra sativa); assay: Test B flooded paddy test; conditions: Flood, 250 g ai/ha; 0 to 100 scale where 0 is no effect and 100 is complete control; 13 to 15 d
How it was run: as §1

[4] = tested on: sedge, umbrella (small-flower umbrella sedge, Cyperus difformis); assay: Test B flooded paddy test; conditions: Flood, 250 g ai/ha; 0 to 100 scale where 0 is no effect and 100 is complete control; 13 to 15 d
How it was run: as §1

[5] = tested on: ragweed (common ragweed, Ambrosia elatior); assay: Test A preemergence; conditions: for Plant response rating, Ragweed: 125 g ai/ha, preemergence, 0 to 100 scale (0 no effect, 100 complete control); for Ragweed plant response rating (0 to 100 scale, 0 is no effect, 100 is complete control): Preemergence, 500 g ai/ha, visual injury approx. 10 d
How it was run: (§2)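 Each rating is a visual injury score from 0 to 100 given about 10 d after treatment, judged against untreated controls kept alongside in the greenhouse. In loam soil–sand blend, seeds got a preemergence directed soil spray, while postemergence plants were 2 to 10 cm tall at spraying.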

[6] = tested on: Kochia (Kochia scoparia); assay: Test A preemergence; conditions: for Plant response rating, Kochia: 125 g ai/ha, preemergence, 0 to 100 scale (0 no effect, 100 complete control); for Kochia plant response rating (0 to 100 scale, 0 is no effect, 100 is complete control): Preemergence, 500 g ai/ha, visual injury approx. 10 d
How it was run: as §2

[7] = tested on: barnyardgrass (Echinochloa crus-galli); assay: Test A preemergence; conditions: for Plant response rating, Barnyardgrass: 125 g ai/ha, preemergence, 0 to 100 scale (0 no effect, 100 complete control); for Barnyardgrass plant response rating (0 to 100 scale, 0 is no effect, 100 is complete control): Preemergence, 500 g ai/ha, visual injury approx. 10 d
How it was run: as §2

[8] = tested on: ryegrass, Italian (Italian ryegrass, Lolium multiflorum); assay: Test A preemergence; conditions: for Plant response rating, Ryegrass, Italian: 125 g ai/ha, preemergence, 0 to 100 scale (0 no effect, 100 complete control); for Ryegrass, Italian plant response rating (0 to 100 scale, 0 is no effect, 100 is complete control): Preemergence, 500 g ai/ha, visual injury approx. 10 d
How it was run: as §2

[9] = tested on: pigweed (Amaranthus retroflexus); assay: Test A preemergence; conditions: for Plant response rating, Pigweed: 125 g ai/ha, preemergence, 0 to 100 scale (0 no effect, 100 complete control); for Pigweed plant response rating (0 to 100 scale, 0 is no effect, 100 is complete control): Preemergence, 500 g ai/ha, visual injury approx. 10 d
[10] = tested on: giant foxtail (Setaria faberii); assay: Test A preemergence; conditions: for Plant response rating, Foxtail, Giant: 125 g ai/ha, preemergence, 0 to 100 scale (0 no effect, 100 complete control); for Foxtail, Giant plant response rating (0 to 100 scale, 0 is no effect, 100 is complete control): Preemergence, 500 g ai/ha, visual injury approx. 10 d
How it was run: as §2

[11] = tested on: ragweed (common ragweed, Ambrosia elatior); assay: Test A postemergence; conditions: postemergence; for Ragweed plant response rating: 125 g ai/ha, visual injury rating on 0 to 100 scale (0 no effect, 100 complete control), approx. 10 d; for Plant response rating, Ragweed: 500 g ai/ha, 0 to 100 scale, 0 no effect, 100 complete control
How it was run: as §2

[12] = tested on: wheat (Triticum aestivum); assay: Test A postemergence; conditions: postemergence; for Wheat plant response rating: 125 g ai/ha, visual injury rating on 0 to 100 scale (0 no effect, 100 complete control), approx. 10 d; for Plant response rating, Wheat: 500 g ai/ha, 0 to 100 scale, 0 no effect, 100 complete control
How it was run: as §2

[13] = tested on: Kochia (Kochia scoparia); assay: Test A postemergence; conditions: postemergence; for Kochia plant response rating: 125 g ai/ha, visual injury rating on 0 to 100 scale (0 no effect, 100 complete control), approx. 10 d; for Plant response rating, Kochia: 500 g ai/ha, 0 to 100 scale, 0 no effect, 100 complete control
How it was run: as §2

[14] = tested on: barnyardgrass (Echinochloa crus-galli); assay: Test A postemergence; conditions: postemergence; for Barnyardgrass plant response rating: 125 g ai/ha, visual injury rating on 0 to 100 scale (0 no effect, 100 complete control), approx. 10 d; for Plant response rating, Barnyardgrass: 500 g ai/ha, 0 to 100 scale, 0 no effect, 100 complete control
How it was run: as §2

[15] = tested on: corn (Zea mays); assay: Test A postemergence; conditions: postemergence; for Corn plant response rating: 125 g ai/ha, visual injury rating on 0 to 100 scale (0 no effect, 100 complete control), approx. 10 d; for Plant response rating, Corn: 500 g ai/ha, 0 to 100 scale, 0 no effect, 100 complete control
How it was run: as §2

[16] = tested on: Galium (catchweed bedstraw, Galium aparine); assay: Test A postemergence; conditions: postemergence; for Galium plant response rating: 125 g ai/ha, visual injury rating on 0 to 100 scale (0 no effect, 100 complete control), approx. 10 d; for Plant response rating, Galium: 500 g ai/ha, 0 to 100 scale, 0 no effect, 100 complete control
How it was run: as §2

[17] = tested on: ryegrass, Italian (Italian ryegrass, Lolium multiflorum); assay: Test A postemergence; conditions: postemergence; for Ryegrass, Italian plant response rating: 125 g ai/ha, visual injury rating on 0 to 100 scale (0 no effect, 100 complete control), approx. 10 d; for Plant response rating, Ryegrass, Italian: 500 g ai/ha, 0 to 100 scale, 0 no effect, 100 complete control
How it was run: as §2

[18] = tested on: pigweed (Amaranthus retroflexus); assay: Test A postemergence; conditions: postemergence; for Pigweed plant response rating: 125 g ai/ha, visual injury rating on 0 to 100 scale (0 no effect, 100 complete control), approx. 10 d; for Plant response rating, Pigweed: 500 g ai/ha, 0 to 100 scale, 0 no effect, 100 complete control
How it was run: as §2

[19] = tested on: blackgrass (Alopecurus myosuroides); assay: Test A postemergence; conditions: postemergence; for Blackgrass plant response rating: 125 g ai/ha, visual injury rating on 0 to 100 scale (0 no effect, 100 complete control), approx. 10 d; for Plant response rating, Blackgrass: 500 g ai/ha, 0 to 100 scale, 0 no effect, 100 complete control
How it was run: as §2

[20] = tested on: giant foxtail (Setaria faberii); assay: Test A postemergence; conditions: postemergence; for Foxtail, Giant plant response rating: 125 g ai/ha, visual injury rating on 0 to 100 scale (0 no effect, 100 complete control), approx. 10 d; for Plant response rating, Foxtail, Giant: 500 g ai/ha, 0 to 100 scale, 0 no effect, 100 complete control
How it was run: as §2

Row | SMILES | Plant response rating, Barnyardgrass [1] | Plant response rating, Ducksalad [2] | Plant response rating, Rice [3] | Plant response rating, Sedge, Umbrella [4] | Ragweed plant response rating (0 to 100 scale, 0 is no effect, 100 is complete control) [5] | Plant response rating, Kochia [6] | Kochia plant response rating (0 to 100 scale, 0 is no effect, 100 is complete control) [6] | Plant response rating, Barnyardgrass [7] | Barnyardgrass plant response rating (0 to 100 scale, 0 is no effect, 100 is complete control) [7] | Plant response rating, Ryegrass, Italian [8] | Ryegrass, Italian plant response rating (0 to 100 scale, 0 is no effect, 100 is complete control) [8] | Plant response rating, Pigweed [9] | Pigweed plant response rating (0 to 100 scale, 0 is no effect, 100 is complete control) [9] | Plant response rating, Foxtail, Giant [10] | Foxtail, Giant plant response rating (0 to 100 scale, 0 is no effect, 100 is complete control) [10] | Ragweed plant response rating [11] | Plant response rating, Ragweed [11] | Wheat plant response rating [12] | Plant response rating, Wheat [12] | Kochia plant response rating [13] | other results
1 | Cc1cc(C2CNC(=O)C2C(=O)Nc2ccc(F)c(F)c2F)ccc1F (centres unmarked) [Compound 401] | 70 | 100 | 25 | 0 | 50 | 50 | 80 | 90 | 90 | 0 | 40 | 20 | 50 | 80 | 90 | 30 | 50 | 20 | 70 | 50 | Plant response rating, Ragweed [5]: 0; Plant response rating, Kochia [13]: 60; Barnyardgrass plant response rating [14]: 90; Plant response rating, Barnyardgrass [14]: 90; Corn plant response rating [15]: 0; Plant response rating, Corn [15]: 40; Galium plant response rating [16]: 50; Plant response rating, Galium [16]: 60; Ryegrass, Italian plant response rating [17]: 30; Plant response rating, Ryegrass, Italian [17]: 60; Pigweed plant response rating [18]: 0; Plant response rating, Pigweed [18]: 40; Blackgrass plant response rating [19]: 0; Plant response rating, Blackgrass [19]: 50; Foxtail, Giant plant response rating [20]: 30; Plant response rating, Foxtail, Giant [20]: 70
2 | Cc1cc(C2CN(C)C(=O)C2C(=O)Nc2ccccc2F)ccc1F (centres unmarked) [Compound 402] | 100 | 90 | 0 | 0 | 70 | 40 | 70 | 90 | 90 | 20 | 40 | 30 | 50 | 90 | 90 | 20 | 60 | 50 | 80 | 20 | Plant response rating, Kochia [13]: 60; Barnyardgrass plant response rating [14]: 90; Plant response rating, Barnyardgrass [14]: 90; Corn plant response rating [15]: 70; Plant response rating, Corn [15]: 80; Galium plant response rating [16]: 50; Plant response rating, Galium [16]: 60; Ryegrass, Italian plant response rating [17]: 30; Plant response rating, Ryegrass, Italian [17]: 50; Pigweed plant response rating [18]: 40; Plant response rating, Pigweed [18]: 50; Blackgrass plant response rating [19]: 50; Plant response rating, Blackgrass [19]: 70; Foxtail, Giant plant response rating [20]: 90; Plant response rating, Foxtail, Giant [20]: 90
3 | Cc1cc(C2CN(C)C(=O)C2C(=O)Nc2cccc(F)c2F)ccc1F (centres unmarked) [Compound 403] | 75 | 100 | 0 | 0 | 60 | 70 | 80 | 90 | 90 | 20 | 70 | 30 | 60 | 90 | 90 | 0 | 30 | 70 | 80 | 40 | Plant response rating, Ragweed [5]: 50; Plant response rating, Kochia [13]: 60; Barnyardgrass plant response rating [14]: 90; Plant response rating, Barnyardgrass [14]: 90; Corn plant response rating [15]: 70; Plant response rating, Corn [15]: 90; Galium plant response rating [16]: 50; Plant response rating, Galium [16]: 60; Ryegrass, Italian plant response rating [17]: 50; Plant response rating, Ryegrass, Italian [17]: 70; Pigweed plant response rating [18]: 50; Plant response rating, Pigweed [18]: 50; Blackgrass plant response rating [19]: 50; Plant response rating, Blackgrass [19]: 60; Foxtail, Giant plant response rating [20]: 90; Plant response rating, Foxtail, Giant [20]: 90
